This assay has as its target Beta-adrenergic receptor kinase 1 (Homo sapiens) (UniProt P25098). The experiment in a line: GRK2 kinase inhibitors, rhodopsin substrate, late-stage follow-up, orthogonal assay for GRK2 aptamer-displacement inhibitor project, biochemical, set 1 (AID 588465). Conditions: GRK2 rhodopsin phosphorylation, 32P incorporation, ROS; at 200 µM; stronger effect = lower value.
Chain of Beta-adrenergic receptor kinase 1 (Homo sapiens) (P25098 whole entry, looked up): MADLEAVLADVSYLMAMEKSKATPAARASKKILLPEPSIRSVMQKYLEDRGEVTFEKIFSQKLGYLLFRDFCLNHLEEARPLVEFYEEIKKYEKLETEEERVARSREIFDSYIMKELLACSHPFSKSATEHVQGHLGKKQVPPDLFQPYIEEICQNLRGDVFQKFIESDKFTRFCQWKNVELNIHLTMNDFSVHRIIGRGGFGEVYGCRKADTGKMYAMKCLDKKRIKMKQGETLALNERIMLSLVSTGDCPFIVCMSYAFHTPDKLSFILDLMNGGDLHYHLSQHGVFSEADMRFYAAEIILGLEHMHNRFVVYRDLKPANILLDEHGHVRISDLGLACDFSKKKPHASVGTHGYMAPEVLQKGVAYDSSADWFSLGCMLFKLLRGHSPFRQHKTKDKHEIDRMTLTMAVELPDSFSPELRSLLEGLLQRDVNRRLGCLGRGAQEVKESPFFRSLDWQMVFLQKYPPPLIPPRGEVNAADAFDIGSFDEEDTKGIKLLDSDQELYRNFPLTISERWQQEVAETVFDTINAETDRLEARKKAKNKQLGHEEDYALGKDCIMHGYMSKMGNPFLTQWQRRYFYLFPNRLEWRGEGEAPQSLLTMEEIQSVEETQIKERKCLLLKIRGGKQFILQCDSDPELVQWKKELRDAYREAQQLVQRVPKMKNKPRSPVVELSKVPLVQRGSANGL
Regarding `COc1ccc(CNC(=O)CCS(=O)(=O)c2ccc(Br)cc2)cc1`, the percent response (negative = inhibition) is -59.5%.

Consider `O=C(CCS(=O)(=O)c1ccc(Br)cc1)Nc1cc(F)ccc1F`, for which the percent response (negative = inhibition) is -37.5%. As for `CCc1ccccc1NC(=O)CCS(=O)(=O)c1ccc(Br)cc1`, the percent response (negative = inhibition) is -26%. With `Cc1cc(=O)[nH]c(SCC(=O)NCc2ccco2)n1` the figure was -17.7%; with `Cc1ccccc1NC(=O)CCS(=O)(=O)c1ccc(Br)cc1`, -12.6%; with `Cc1cc2ccccc2n1CCNC(=O)c1cccs1`, -42.4%.

For `O=C(CCS(=O)(=O)c1ccc(Br)cc1)NCCc1ccc(Cl)cc1`, the percent response (negative = inhibition) was -35.6%. With `O=C(O)C1CC(=O)N(c2ccc3c(c2)OCCO3)C1` (stereo not given) the figure was -77.7%; with `CCOc1ccc(CCNC(=O)CCS(=O)(=O)c2ccc(Br)cc2)cc1OCC`, -69.7%; with `Cc1cccc(N2CCN(C(=O)CCS(=O)(=O)c3ccc(Br)cc3)CC2C)c1` (stereo not given), -24%.

These data come from PubChem BioAssay AID588465 (NMMLSC, 2011).
